Test results reported in the NIST ThermoML archive (doi:10.1021/je060368x).

Assays:
[1] = xn = mol fraction of the nth substance listed; conditions: 298.15 K, 101 kPa, Liquid
[2] = excess molar enthalpy (molar enthalpy of mixing); xn = mol fraction of the nth substance listed; conditions: 298.15 K, 101 kPa, Liquid, Flow calorimetry
[3] = heat capacity at constant pressure per volume; xn = mol fraction of the nth substance listed; conditions: 298.15 K, 101 kPa, Liquid
[4] = heat capacity at constant pressure per volume; conditions: 298.15 K; 101.33 kPa; Liquid

CCCCCCCO [heptan-1-ol] + C1CCOCC1
[1]
Conditions	mass density [kg/m3]
x2 = 0.0514	820.57
x2 = 0.1047	822.8
x2 = 0.1988	826.97
x2 = 0.2987	831.67
x2 = 0.4018	836.94
x2 = 0.4976	842.18
x2 = 0.6005	848.37
x2 = 0.6985	854.74
x2 = 0.8002	861.99
x2 = 0.8989	869.83
x2 = 0.9487	874.13

CCCCCCCCCO [nonan-1-ol] + C1CCOCC1
Conditions	excess molar enthalpy [kcal/mol]	mass density [kg/m3]
[1], x2 = 0.0965	–	826.81
[1], x2 = 0.1998	–	830.22
[1], x2 = 0.2989	–	833.75
[1], x2 = 0.3822	–	837.11
[1], x2 = 0.497	–	842.35
[1], x2 = 0.5969	–	847.63
[1], x2 = 0.6983	–	853.74
[1], x2 = 0.8	–	860.8
[1], x2 = 0.9002	–	869.06
[2], x2 = 0.166	0.13	–
[2], x2 = 0.309	0.211	–
[2], x2 = 0.434	0.254	–
[2], x2 = 0.544	0.27	–
[2], x2 = 0.641	0.263	–
[2], x2 = 0.729	0.238	–
[2], x2 = 0.807	0.197	–
[2], x2 = 0.877	0.143	–
[2], x2 = 0.942	0.0767	–

C1CCOCC1 [tetrahydropyran] + CCCCCCO
Conditions	heat capacity, [3] [J/K/m3]	mass density, [1] [kg/m3]
x1 = 0.0523	1899000	817.49
x1 = 0.1033	1883000	820.05
x1 = 0.2029	1851000	825.28
x1 = 0.3021	1818000	830.74
x1 = 0.4033	1782000	836.58
x1 = 0.5007	1745000	842.45
x1 = 0.6013	1705000	848.93
x1 = 0.7015	1662000	855.69
x1 = 0.799	1616000	862.7
x1 = 0.8994	1567000	870.44
x1 = 0.9482	1543000	874.45

C1CCOCC1 [tetrahydropyran] + CCCO
Conditions	heat capacity, [3] [J/K/m3]	mass density, [1] [kg/m3]
x1 = 0.0996	1875000	809.78
x1 = 0.1994	1838000	819.29
x1 = 0.2873	1807000	827.18
x1 = 0.3993	1766000	836.57
x1 = 0.4981	1728000	844.4
x1 = 0.6011	1687000	852.07
x1 = 0.7007	1646000	859.15
x1 = 0.7981	1604000	865.77
x1 = 0.9007	1560000	872.46

CCCCCCCCCCO [decan-1-ol] + C1CCCCC1
[2]
Conditions	excess molar enthalpy [kcal/mol]
x2 = 0.164	0.0694
x2 = 0.306	0.118
x2 = 0.431	0.148
x2 = 0.541	0.163
x2 = 0.638	0.166
x2 = 0.726	0.159
x2 = 0.805	0.144
x2 = 0.876	0.122
x2 = 0.941	0.0902

CCCCCCCCCO [nonan-1-ol] + C1CCCCC1
[2]
Conditions	excess molar enthalpy [kcal/mol]
x2 = 0.152	0.0608
x2 = 0.287	0.107
x2 = 0.409	0.138
x2 = 0.518	0.156
x2 = 0.617	0.161
x2 = 0.707	0.157
x2 = 0.79	0.143
x2 = 0.866	0.12
x2 = 0.936	0.089

C1CCOCC1 [tetrahydropyran]
Conditions	heat capacity [J/K/m3]
[4]	1519000

C1CCOCC1 [tetrahydropyran] + CCCCCCCCO
[1]
Conditions	mass density [kg/m3]
x1 = 0.0533	823.35
x1 = 0.0961	824.78
x1 = 0.198	828.58
x1 = 0.2967	832.64
x1 = 0.4014	837.39
x1 = 0.5	842.3
x1 = 0.599	847.86
x1 = 0.7005	854.23
x1 = 0.7999	861.27
x1 = 0.8989	869.3
x1 = 0.9504	873.97

C1CCOCC1 [tetrahydropyran] + CCCCCO
Conditions	excess molar enthalpy, [2] [kcal/mol]	heat capacity, [3] [J/K/m3]	mass density, [1] [kg/m3]
x1 = 0.0486	–	1898000	813.55
x1 = 0.0968	–	1881000	816.55
x1 = 0.11	0.0784	–	–
x1 = 0.2002	–	1846000	823.07
x1 = 0.217	0.144	–	–
x1 = 0.2987	–	1811000	829.33
x1 = 0.323	0.19	–	–
x1 = 0.3966	–	1776000	835.71
x1 = 0.426	0.219	–	–
x1 = 0.4994	–	1738000	842.54
x1 = 0.526	0.232	–	–
x1 = 0.5993	–	1698000	849.33
x1 = 0.625	0.228	–	–
x1 = 0.6972	–	1657000	856.2
x1 = 0.722	0.206	–	–
x1 = 0.8	–	1610000	863.59
x1 = 0.816	0.165	–	–
x1 = 0.8983	–	1564000	870.89
x1 = 0.909	0.0978	–	–
x1 = 0.9495	–	1540000	874.85

C1CCOCC1 [tetrahydropyran] + CCCCO
Conditions	heat capacity, [3] [J/K/m3]	mass density, [1] [kg/m3]
x1 = 0.0511	1899000	809.59
x1 = 0.0976	1882000	813.23
x1 = 0.1996	1847000	821.04
x1 = 0.301	1811000	828.64
x1 = 0.3987	1778000	835.87
x1 = 0.499	1739000	843.12
x1 = 0.598	1699000	850.26
x1 = 0.6994	1655000	857.46
x1 = 0.7998	1610000	864.53
x1 = 0.8998	1563000	871.67
x1 = 0.9501	1541000	875.22

CCCCCCCCCCO [decan-1-ol] + C1CCOCC1
Conditions	excess molar enthalpy [kcal/mol]	mass density [kg/m3]
[1], x2 = 0.1017	–	828.6
[1], x2 = 0.2006	–	831.38
[1], x2 = 0.2971	–	834.48
[1], x2 = 0.3995	–	838.2
[1], x2 = 0.4943	–	842.21
[1], x2 = 0.5984	–	847.35
[1], x2 = 0.6979	–	853.12
[1], x2 = 0.8001	–	860.13
[1], x2 = 0.9009	–	868.56
[2], x2 = 0.179	0.14	–
[2], x2 = 0.329	0.229	–
[2], x2 = 0.456	0.27	–
[2], x2 = 0.566	0.282	–
[2], x2 = 0.662	0.271	–
[2], x2 = 0.746	0.243	–
[2], x2 = 0.82	0.198	–
[2], x2 = 0.887	0.142	–
[2], x2 = 0.946	0.075	–

C1CCOCC1 [tetrahydropyran] + CCCCCCCCCC
[2]
Conditions	excess molar enthalpy [kcal/mol]
x1 = 0.182	0.0908
x1 = 0.333	0.143
x1 = 0.461	0.165
x1 = 0.571	0.17
x1 = 0.666	0.16
x1 = 0.75	0.141
x1 = 0.823	0.115
x1 = 0.889	0.0821
x1 = 0.947	0.0428

CCCCCCCO [heptan-1-ol] + C1CCCCC1
[2]
Conditions	excess molar enthalpy [kcal/mol]
x2 = 0.127	0.0456
x2 = 0.246	0.0867
x2 = 0.359	0.119
x2 = 0.466	0.142
x2 = 0.567	0.154
x2 = 0.662	0.155
x2 = 0.753	0.145
x2 = 0.839	0.126
x2 = 0.922	0.0956

CCCCCO [pentan-1-ol] + C1CCCCC1
[2]
Conditions	excess molar enthalpy [kcal/mol]
x2 = 0.1	0.0357
x2 = 0.2	0.0692
x2 = 0.3	0.0977
x2 = 0.4	0.125
x2 = 0.5	0.143
x2 = 0.6	0.152
x2 = 0.7	0.149
x2 = 0.8	0.133
x2 = 0.9	0.102
